# Test results as given in ChEMBL document CHEMBL1671839 (ACS Med Chem Lett, 2011).
# Key:
# in vivo [1] = conditions: Wistar, rat, iv, 1 mg/kg
# Rattus norvegicus = species: Rattus norvegicus; conditions: in vivo, iv, 1 mg/kg
# in vivo [2] = conditions: Wistar, rat, po, 10 mg/kg
# in vivo [3] = conditions: Wistar, rat, po, 10 mg/kg; remark: listed apart in the source
# in vivo [4] = conditions: Wistar, rat, iv, 1 mg/kg; remark: listed apart in the source
# [5] = Volume of distribution at steady state in cynomolgus monkey at 0.5 mg/kg, iv; assay type: ADME, organism-based, Macaca fascicularis; set-up: dose 0.5 mg/kg, route intravenous; conditions: in vivo, read-out: Vdss
# [6] = Tmax in cynomolgus monkey at 1 mg/kg, po; assay type: ADME, organism-based, Macaca fascicularis; set-up: dose 1 mg/kg, route oral; conditions: in vivo
# [7] = Cmax in cynomolgus monkey at 1 mg/kg, po; assay type: ADME, organism-based, Macaca fascicularis; set-up: dose 1 mg/kg, route oral; conditions: in vivo
# in vivo [8] = conditions: Wistar, rat, plasma, iv, 1 mg/kg
# [9] = Oral bioavailability in cynomolgus monkey at 1 mg/kg; assay type: ADME, organism-based, Macaca fascicularis; conditions: in vivo
# [10] = Cmax in Beagle dog at 1 mg/kg, po; assay type: ADME, organism-based, Canis lupus familiaris; set-up: dose 1 mg/kg, route oral; conditions: in vivo
# [11] = Half life in cynomolgus monkey at 0.5 mg/kg, iv; assay type: ADME, organism-based, Macaca fascicularis; set-up: dose 0.5 mg/kg, route intravenous; conditions: in vivo
# in vitro [12] = conditions: rat, liver microsomes
# [13] = Cmax in BALB/c mouse at 10 mg/kg, po; assay type: ADME, organism-based; set-up: dose 10 mg/kg, route oral; conditions: in vivo
# [14] = Tmax in Beagle dog at 1 mg/kg, po; assay type: ADME, organism-based, Canis lupus familiaris; set-up: dose 1 mg/kg, route oral; conditions: in vivo
# [15] = AUC in cynomolgus monkey at 0.5 mg/kg, iv; assay type: ADME, organism-based, Macaca fascicularis; set-up: dose 0.5 mg/kg, route intravenous; conditions: plasma
# in vitro [16] = conditions: human, liver microsomes
# [17] = Oral bioavailability in Beagle dog at 1 mg/kg; assay type: ADME, organism-based, Canis lupus familiaris; conditions: in vivo
# [18] = AUC in Beagle dog at 1 mg/kg, iv; assay type: ADME, organism-based, Canis lupus familiaris; set-up: dose 1 mg/kg, route intravenous; conditions: plasma
# in vivo [19] = conditions: Wistar, rat, po, 10 mg/kg; remark: listed apart in the source
# [20] = Plasma clearance in cynomolgus monkey at 0.5 mg/kg, iv; assay type: ADME, organism-based, Macaca fascicularis; set-up: dose 0.5 mg/kg, route intravenous
# [21] = Half life in Beagle dog at 1 mg/kg, iv; assay type: ADME, organism-based, Canis lupus familiaris; set-up: dose 1 mg/kg, route intravenous; conditions: in vivo
# in vivo [22] = conditions: Wistar, rat, plasma, iv, 1 mg/kg; remark: listed apart in the source
# [23] = Plasma clearance in Beagle dog at 1 mg/kg, iv; assay type: ADME, organism-based, Canis lupus familiaris; set-up: dose 1 mg/kg, route intravenous
# [24] = Tmax in BALB/c mouse at 10 mg/kg, po; assay type: ADME, organism-based; set-up: dose 10 mg/kg, route oral; conditions: in vivo
# [25] = Terminal phase volume of distribution […] in Beagle dog at 1 mg/kg, iv; assay type: ADME, organism-based, Canis lupus familiaris; set-up: dose 1 mg/kg, route intravenous; conditions: in vivo, read-out: Vbeta
# [26] = Terminal phase volume of distribution […] in cynomolgus monkey at 0.5 mg/kg, iv; assay type: ADME, organism-based, Macaca fascicularis; set-up: dose 0.5 mg/kg, route intravenous; conditions: in vivo, read-out: Vbeta
# [27] = Volume of distribution at steady state in Beagle dog at 1 mg/kg, iv; assay type: ADME, organism-based, Canis lupus familiaris; set-up: dose 1 mg/kg, route intravenous; conditions: in vivo, read-out: Vdss
smiles,measurement,setting,value
CC(=O)Nc1cnc(-c2ccncc2)c(-c2ccco2)n1,Vd,in vivo [1],0.8 L/kg
same,AUC,Rattus norvegicus,751000 ng·h/mL
same,Tmax,in vivo [2],1.1 h
same,bioavailability,in vivo [3],93%
same,half-life,in vivo [4],0.4 h
O=C(Nc1cnc(-c2ccncc2F)c(-c2cccnc2)n1)C1CC1 [LAS101057],Vd,[5],0.4 L/kg
same,Vd,in vivo [1],1.2 L/kg
same,Tmax,[6],3 h
same,Cmax,[7],5900 ng/mL
same,AUC,in vivo [8],920 ng·h/mL
same,bioavailability,[9],100%
same,Cmax,[10],820 ng/mL
same,half-life,[11],3.8 h
same,"metabolised at 0.5 h, 5 µM",in vitro [12],13%
same,Tmax,in vivo [2],0.25 h
same,Cmax,[13],17400 ng/mL
same,Tmax,[14],2 h
same,AUC,[15],3400 ng·h/mL
same,"metabolised at 0.5 h, 5 µM",in vitro [16],5%
same,bioavailability,[17],98%
same,AUC,[18],13600 ng·h/mL
same,Cmax,in vivo [19],7110 ng/mL
same,clearance,[20],3.4 mL/min/kg
same,half-life,[21],8.6 h
same,clearance,in vivo [22],18.3 mL/min/kg
same,clearance,[23],1.7 mL/min/kg
same,bioavailability,in vivo [3],100%
same,Tmax,[24],0.25 h
same,Vd,[25],0.9 L/kg
same,Vd,[26],0.8 L/kg
same,Vd,[27],0.8 L/kg
same,half-life,in vivo [4],0.8 h
